Assay results reported in patent publication US4211551A, “Herbicide” (Siegfried AG, priority 1976, dated 1980).

Experiments:
[1] = test system: Camomile (Matricaria chamomilla); assay: Field test, herbicidal % effect on weeds (logarithmic sprayer); assay type: in vivo; conditions: four weeks
From the text: (§1) The composition prepared according to example 6 was used in field tests and compared with a composition of the type set forth in example 6 with the modification that the CBPA was replaced by the same amount of a conventional herbicide, i.e. Methabenzthiazuron (BSI approved common name). A "logarithmic" spraying apparatus of the type known in herbicide evaluation was used for these tests. This apparatus comprises an elongated spraying device connected with a reservoir for the composition to be tested, and a water reservoir. Separate test areas were sprayed with this apparatus and each composition was applied as an aqueous suspension. […] The apparatus was operated such that the initial concentration of the active ingredient was equivalent to 10 kg/ha and decreased as follows:
(§2) The amount of water applied by the apparatus remained constant and was equivalent to 666 liters per hectare. The tests were made in early August of 1976. The test areas were seeded with crop plant on a substantially weed-free soil, a middle-heavy sandy clay. One test area (zero-control) was seeded but not sprayed. Four weeks thereafter, the treated areas were inspected to determine the number of individual weed plants per square meter for five significant types of weeds and to calculate the percent effect according to the formula
(§3) wherein AK is the number of the individual plants of the specific weed in the untreated zero-control area and AB is the corresponding number of weed plants in the treated area. The results of these tests for three different dosage amounts with the inventive CBPA (column A) and the prior art Methabenzthiazuron are summarized in Table I below. This table further includes compatibility data of three types of crop plants for the tested composition. Crop compatibility was rated according to the evaluation scale of the "European Weed Research Council (EWRC)." In this scale, numeral 1 indicates complete absence of plant damage symptoms while numeral 9 indicates complete damage. For practical purposes, the crop tolerance limit is assumed to be between numerals 4 and 5.

[2] = test system: Chickweed (Stellaria media); assay: as above; assay type: in vivo; conditions: four weeks
From the text: as §1, §2, §3

[3] = test system: Lambs Quarters (Chenopodium album); assay: as above; assay type: in vivo; conditions: four weeks
From the text: as §1, §2, §3

[4] = test system: Rough Henbit (Lamium purpureum); assay: as above; assay type: in vivo; conditions: four weeks
From the text: as §1, §2, §3

[5] = test system: Shepherds Purse (Capsella bursa-pastoris); assay: as above; assay type: in vivo; conditions: four weeks
From the text: as §1, §2, §3

[6] = test system: five significant types of weeds; assay: Field test, average weed effect over five weeds; assay type: in vivo; conditions: four weeks
From the text: as §1, §2, §3

Corn (Zea mais) = assay: Field test, crop compatibility (EWRC-evaluation); assay type: in vivo
From the text: as §1, §2, §3

Green beans = assay: Field test, crop compatibility (EWRC-evaluation); assay type: in vivo
From the text: as §1, §2, §3

weed infested crop area = assay: Treatment of weed infested crop area in the two to four leave state; assay type: in vivo
[7] = test system: Annual meadow grass (Poa annua); assay: Further field tests, control of Graminae weeds; assay type: in vivo
From the text: as §1, §2

[8] = test system: Barnyard Grass (Echinochloa crus-galli); assay: Further field tests, control of Graminae weeds; assay type: in vivo
From the text: as §1, §2

[9] = test system: Common wild oat (Avena fatua); assay: Further field tests, control of Graminae weeds; assay type: in vivo
From the text: as §1, §2

Wild oat (Avena fatua) = assay: Green-house test, control of Wild oat (EWRC-scale); assay type: in vivo; conditions: scale 1 = complete absence of plant damage, 9 = complete damage
From the text: as §3
Green-house tests were made to determine the activity of CBPA in the control of Wild oat (Avena fatua), a very noxious weed in many crop cultures. The test plants were seeded and cultured in pots at temperatures of 20° to 21° C. Effectivity tests were made when the plants had reached the two-leave to four-leave state, i.e. when the total plant height was about 10 to 12 cm. The amount of water applied in addition to the composition was equivalent to 1000 liters per hectare in each case. As a comparative substance (formulated in the same manner as the inventive CBPA or its salts) a recently developed standard herbicide, Diclofop-methyl, (BSI-approved common name) was used.
The effects were rated again by the EWRC-scale mentioned above and the results are given in Table II below indicating the results at varying amounts of the applied substance (in kilograms of active substance per hectare) after 7, 14 and 21 days subsequent to the treatment.

[10] = test system: monocotyledonous and dicotyledonous weeds; assay: Herbicidal effectiveness against monocotyledonous and dicotyledonous weeds; assay type: in vivo; conditions: pre-emergence and post-emergence treatment
[11] = test system: weeds of the Graminae family; assay: Herbicidal effectiveness against Graminae weeds; assay type: in vivo; conditions: such as Barnyard grass, Annual meadow-grass, Wild Oat
mice = conditions: cited from earlier work
Barley = assay: Field test, crop compatibility (EWRC-evaluation); assay type: in vivo; conditions: scale 1 = complete absence of plant damage symptoms, 9 = complete damage
From the text: as §1, §2, §3

O=C(O)COc1ccc(Cc2ccc(Cl)cc2)cc1 [CBPA, 4-(4'-chlorobenzyl)-phenoxy acetic acid]
Herbicidal % effect on specific weeds ([1]; 2.65 kg/ha a.i.): 70%
Herbicidal % effect on specific weeds ([1]; 4.3 kg/ha a.i.): 90%
Herbicidal % effect on specific weeds ([1]; 6.7 kg/ha a.i.): 100%
Herbicidal % effect on specific weeds ([2]; 2.65 kg/ha a.i.): 83%
Herbicidal % effect on specific weeds ([2]; 4.3 kg/ha a.i.): 100%
Herbicidal % effect on specific weeds ([2]; 6.7 kg/ha a.i.): 100%
Herbicidal % effect on specific weeds ([3]; 2.65 kg/ha a.i.): 83%
Herbicidal % effect on specific weeds ([3]; 4.3 kg/ha a.i.): 100%
Herbicidal % effect on specific weeds ([3]; 6.7 kg/ha a.i.): 100%
Herbicidal % effect on specific weeds ([4]; 2.65 kg/ha a.i.): 89%
Herbicidal % effect on specific weeds ([4]; 4.3 kg/ha a.i.): 91%
Herbicidal % effect on specific weeds ([4]; 6.7 kg/ha a.i.): 97%
Herbicidal % effect on specific weeds ([5]; 2.65 kg/ha a.i.): 84%
Herbicidal % effect on specific weeds ([5]; 4.3 kg/ha a.i.): 96%
Herbicidal % effect on specific weeds ([5]; 6.7 kg/ha a.i.): 100%
Average weed effect (%) ([6]; 2.65 kg/ha a.i.): 81.8%
Average weed effect (%) ([6]; 4.3 kg/ha a.i.): 95.4%
Average weed effect (%) ([6]; 6.7 kg/ha a.i.): 99.4%
Crop compatibility (EWRC-evaluation) (Corn (Zea mais); in vivo): 1
Crop compatibility (EWRC-evaluation) (Green beans; in vivo): 1
Contact effect (weed infested crop area; two to four leave state, in addition to residual effectiveness): remarkable contact effect
Result of treatment in two to four leave state (weed infested crop area; weeds and crops in two to four leave state): positive results
Effectiveness for control of Graminae weeds [7]: remarkable effectiveness
Effectiveness for control of Graminae weeds [8]: remarkable effectiveness
Effectiveness for control of Graminae weeds [9]: remarkable effectiveness
Effect on Wild oat rated by EWRC-scale (Wild oat (Avena fatua); 1 kg/ha, 7 days): 3
Effect on Wild oat rated by EWRC-scale (Wild oat (Avena fatua); 1 kg/ha, 14 days): 4
Effect on Wild oat rated by EWRC-scale (Wild oat (Avena fatua); 1 kg/ha, 21 days): 4
Effect on Wild oat rated by EWRC-scale (Wild oat (Avena fatua); 2 kg/ha, 7 days): 4
Effect on Wild oat rated by EWRC-scale (Wild oat (Avena fatua); 2 kg/ha, 14 days): 6
Effect on Wild oat rated by EWRC-scale (Wild oat (Avena fatua); 2 kg/ha, 21 days): 8
Effect on Wild oat rated by EWRC-scale (Wild oat (Avena fatua); 4 kg/ha, 7 days): 5
Effect on Wild oat rated by EWRC-scale (Wild oat (Avena fatua); 4 kg/ha, 14 days): 9
Effect on Wild oat rated by EWRC-scale (Wild oat (Avena fatua); 4 kg/ha, 21 days): 9
Effect on Wild oat rated by EWRC-scale (Wild oat (Avena fatua); 8 kg/ha, 7 days): 5
Effect on Wild oat rated by EWRC-scale (Wild oat (Avena fatua); 8 kg/ha, 14 days): 9
Effect on Wild oat rated by EWRC-scale (Wild oat (Avena fatua); 8 kg/ha, 21 days): 9
Herbicidal effectiveness against monocotyledonous and dicotyledonous weeds [10]: remarkable degree of effectiveness
Herbicidal effectiveness against monocotyledonous and dicotyledonous weeds ([10]; listed as 4-(4'-chlorobenzyl)-phenoxy acetic acid): surprisingly high degree of herbicidal effectiveness
Effectiveness when controlling weeds of the Graminae family [11]: particularly beneficial and high degree of effectiveness
LD50 (acute oral toxicity) (mice): 2700 mg per kilogram of body weight

COC(=O)C(C)Oc1ccc(Oc2ccc(Cl)cc2Cl)cc1 (centres unmarked) [Diclofop-methyl, reference compound]
Effect on Wild oat rated by EWRC-scale (Wild oat (Avena fatua); 1 kg/ha, 7 days): 2
Effect on Wild oat rated by EWRC-scale (Wild oat (Avena fatua); 1 kg/ha, 14 days): 4
Effect on Wild oat rated by EWRC-scale (Wild oat (Avena fatua); 1 kg/ha, 21 days): 4
Effect on Wild oat rated by EWRC-scale (Wild oat (Avena fatua); 2 kg/ha, 7 days): 3
Effect on Wild oat rated by EWRC-scale (Wild oat (Avena fatua); 2 kg/ha, 14 days): 5
Effect on Wild oat rated by EWRC-scale (Wild oat (Avena fatua); 2 kg/ha, 21 days): 5
Effect on Wild oat rated by EWRC-scale (Wild oat (Avena fatua); 4 kg/ha, 7 days): 5
Effect on Wild oat rated by EWRC-scale (Wild oat (Avena fatua); 4 kg/ha, 14 days): 7
Effect on Wild oat rated by EWRC-scale (Wild oat (Avena fatua); 4 kg/ha, 21 days): 8
Effect on Wild oat rated by EWRC-scale (Wild oat (Avena fatua); 8 kg/ha, 7 days): 5
Effect on Wild oat rated by EWRC-scale (Wild oat (Avena fatua); 8 kg/ha, 14 days): 6
Effect on Wild oat rated by EWRC-scale (Wild oat (Avena fatua); 8 kg/ha, 21 days): 8

CNC(=O)N(C)c1nc2ccccc2s1 [Methabenzthiazuron, reference compound]
Herbicidal % effect on specific weeds ([1]; 2.65 kg/ha a.i.): 88%
Herbicidal % effect on specific weeds ([1]; 4.3 kg/ha a.i.): 100%
Herbicidal % effect on specific weeds ([1]; 6.7 kg/ha a.i.): 100%
Herbicidal % effect on specific weeds ([2]; 2.65 kg/ha a.i.): 100%
Herbicidal % effect on specific weeds ([2]; 4.3 kg/ha a.i.): 100%
Herbicidal % effect on specific weeds ([2]; 6.7 kg/ha a.i.): 100%
Herbicidal % effect on specific weeds ([3]; 2.65 kg/ha a.i.): 87%
Herbicidal % effect on specific weeds ([3]; 4.3 kg/ha a.i.): 94%
Herbicidal % effect on specific weeds ([3]; 6.7 kg/ha a.i.): 98%
Herbicidal % effect on specific weeds ([4]; 2.65 kg/ha a.i.): 0%
Herbicidal % effect on specific weeds ([4]; 4.3 kg/ha a.i.): 73%
Herbicidal % effect on specific weeds ([4]; 6.7 kg/ha a.i.): 80%
Herbicidal % effect on specific weeds ([5]; 2.65 kg/ha a.i.): 95%
Herbicidal % effect on specific weeds ([5]; 4.3 kg/ha a.i.): 99%
Herbicidal % effect on specific weeds ([5]; 6.7 kg/ha a.i.): 100%
Average weed effect (%) ([6]; 2.65 kg/ha a.i.): 74%
Average weed effect (%) ([6]; 4.3 kg/ha a.i.): 91.5%
Average weed effect (%) ([6]; 6.7 kg/ha a.i.): 95.6%
Crop compatibility (EWRC-evaluation) (Barley; 2.65 kg/ha a.i., tolerance limit between 4 and 5): 1
Crop compatibility (EWRC-evaluation) (Barley; 4.3 kg/ha a.i.): 1
Crop compatibility (EWRC-evaluation) (Barley; 6.7 kg/ha a.i., tolerance limit between 4 and 5): 5
Crop compatibility (EWRC-evaluation) (Corn (Zea mais); Corn, 2.65 kg/ha a.i., scale 1 = complete absence of plant damage symptoms, 9 = complete damage, tolerance limit between 4 and 5): 1
Crop compatibility (EWRC-evaluation) (Corn (Zea mais); Corn, 4.3 kg/ha a.i., scale 1 = complete absence of plant damage symptoms, 9 = complete damage): 1
Crop compatibility (EWRC-evaluation) (Corn (Zea mais); Corn, 6.7 kg/ha a.i., scale 1 = complete absence of plant damage symptoms, 9 = complete damage): 1
Crop compatibility (EWRC-evaluation) (Green beans; Green beans, 2.65 kg/ha a.i., scale 1 = complete absence of plant damage symptoms, 9 = complete damage, tolerance limit between 4 and 5): 1
Crop compatibility (EWRC-evaluation) (Green beans; Green beans, 4.3 kg/ha a.i., scale 1 = complete absence of plant damage symptoms, 9 = complete damage): 1
Crop compatibility (EWRC-evaluation) (Green beans; Green beans, 6.7 kg/ha a.i., scale 1 = complete absence of plant damage symptoms, 9 = complete damage): 1
